# Article PMC3130079 (2011)
# Target: TRPA1 (Mus musculus, UniProt Q8BLA8)
# Assay: Ca2+ imaging and whole-cell patch clamp in TRPA1-transfected CHO cells
# Type: cell-based
# Chain of TRPA1 (Q8BLA8 whole entry): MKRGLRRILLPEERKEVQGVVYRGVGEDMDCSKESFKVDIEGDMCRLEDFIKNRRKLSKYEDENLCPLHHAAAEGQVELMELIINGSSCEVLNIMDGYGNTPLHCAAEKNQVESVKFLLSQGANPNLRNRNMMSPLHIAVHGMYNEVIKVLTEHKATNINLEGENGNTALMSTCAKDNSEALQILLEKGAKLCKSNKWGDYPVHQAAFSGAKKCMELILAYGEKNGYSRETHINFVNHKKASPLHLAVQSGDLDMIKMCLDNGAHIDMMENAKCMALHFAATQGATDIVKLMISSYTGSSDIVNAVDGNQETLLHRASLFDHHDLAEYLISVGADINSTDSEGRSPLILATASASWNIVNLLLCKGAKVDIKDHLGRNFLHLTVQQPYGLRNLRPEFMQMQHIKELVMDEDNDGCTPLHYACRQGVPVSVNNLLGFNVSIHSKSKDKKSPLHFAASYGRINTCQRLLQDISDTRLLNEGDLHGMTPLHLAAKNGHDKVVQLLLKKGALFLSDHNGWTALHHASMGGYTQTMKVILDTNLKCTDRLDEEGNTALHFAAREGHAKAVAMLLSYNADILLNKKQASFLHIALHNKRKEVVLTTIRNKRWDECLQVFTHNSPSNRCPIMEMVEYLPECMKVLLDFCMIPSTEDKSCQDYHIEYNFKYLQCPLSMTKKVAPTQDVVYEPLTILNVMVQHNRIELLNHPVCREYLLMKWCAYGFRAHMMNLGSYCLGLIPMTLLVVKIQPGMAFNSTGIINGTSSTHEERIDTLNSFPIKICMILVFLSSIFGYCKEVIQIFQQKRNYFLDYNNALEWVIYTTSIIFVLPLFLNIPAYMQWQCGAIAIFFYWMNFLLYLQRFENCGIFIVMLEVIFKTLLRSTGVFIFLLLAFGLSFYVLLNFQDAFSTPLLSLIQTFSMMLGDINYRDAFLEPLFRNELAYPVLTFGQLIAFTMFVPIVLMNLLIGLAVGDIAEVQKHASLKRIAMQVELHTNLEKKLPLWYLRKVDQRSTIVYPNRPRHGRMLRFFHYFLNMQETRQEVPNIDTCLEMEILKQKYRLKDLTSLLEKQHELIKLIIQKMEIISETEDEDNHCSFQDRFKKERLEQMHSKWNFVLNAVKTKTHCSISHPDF
compound,measurement,value
COc1ccc(C(=O)c2c(C)n(CCN3CCOCC3)c3cc(I)ccc23)cc1 [AM630],EC50,2000 nM
